Experimental data taken from article PMC11984388, “A brain-accessible peptide modulates stroke inflammatory response and neurotoxicity by targeting BDNF-receptor TrkB-T1 specific interactome” (Theranostics, 2025).

Columns and labels:
Assay in all cases: Western blot in excitotoxicity
Format in all cases: cell-based, rat
MEF2D = details: peptide 15 µM 30 min, NMDA 30-120 min; normalized to NSE; differences not statistically significant compared to TMyc; n = 5
Experimental: (§1) amounts were combined with streptavidin-agarose beads previously was hed with NP-40 lysis buffer and incubated at room temperature for 1.5 h with agitation. Sedimented beads were was hed 3 times with the NP-40 lysis buffer to remove poss ible non-spe cifica lly bounded proteins, and peptides and their interacting proteins were released by incubation at 50°C for 40 min in RI P A modifie d buffer (50 mM Tris HCl pH 8.0, 150 mM NaC l, 1% sodium deoxycholate , 1% NP-40) combined with protease and phospha tase inhibitors as before .
(§2) Prote omic analysis of Bio-sT T1Ct-inte racting proteins
(§3) Prote omic analys is was performed in Pros taR (1.34.6) software tool, using the protocol for protein-level analys is. Prote omic abundanc es from 4 independent experiments were log-transforme d and filtered follow ing quality parameters: proteins present in at least >50% of one of the conditions and identifie d by at least 2 unique peptides . After, data was normalized by LOESS (locally es tima te d sc atterplot smoothing, k=0.7), and POV (par tially obse rved values ) and ME C (miss ing in entire condition values ) imputations were made using, respec tive ly, KNN (k-neares t-neighbour k=10) and det.quantile (quantile imputation using quantile = 2,5).
(§4) Differential analys is was performed using limma (3.16). Multiple comparison p-values where calibrated using sl i m algorithm and the FDR (fals e disc overy rate) is indicated for eac h comparison. For PCA (principal component analys is ), filte red, normalized and imputed data was use d corre cted for batch ef fe ct using removeBatc hEffe ct {limma} function. […]
(§5) dry milk solution in Tris Buffere d Saline-Tween (TBS-T, 20 mM Tris HCl pH 7.5, 137 mM NaC l, 0.05% Tween-20) and incubated overnight at 4°C with prima ry antibodies . […] To conclude, immunore activity was detecte d using Clar ity Wes ter n ECL Blotting Substrate (BioRad) and band intensity was quantified by dens itome tric analys is (Photos hop, Adobe). […] Multiple independent experiments were car r ied out and quantitated as detailed in the figure legends . […]

TrkB-T1 = details: peptide 15 µM 30 min, NMDA 30-120 min; compared to TMyc
Experimental: as §1, §2, §3, §4, §5

pCREB = details: peptide 15 µM 30 min, NMDA 30-120 min; normalized to NSE; differences not statistically significant compared to TMyc; n = 5
Experimental: as §1, §2, §3, §4, §5

Which results are given for Ac-YGRKKRRQRRRPPFVLFHKIPLDG-NH2 [TT1Ct]?
Effect on MEF2D levels (MEF2D): partially preserved; Effect on TrkB-T1 regulation (TrkB-T1): did not have significant effects; Effect on pCREB levels (pCREB): partially preserved
